In patent publication US8735398B2 (Bristol-Myers Squibb Company, priority 2009, dated 2014):
pEC50: −log10 of the molar value. Like-named read-outs stand apart in the source and are kept apart here.

Test system: HCV 1b genotype
Experiment: HCV replicon assay (HCV-neo replicon cells, wild-type)
Type: cell-based, Hepatitis C virus
Details: HCV 1b genotype replicon
Outline: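 Inhibition was tested in replicon-bearing cells, both wild-type HCV-neo and lines with NS5A resistance substitutions, using the O'Boyle et al. 2005 replicon method or luciferase-reporter formats.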

[1] = Hepatitis C virus, class symbols, read-out: EC50 Range against HCV 1b
[2] = Hepatitis C virus, class symbol, read-out: EC50 Range against HCV 1b
[3] = Hepatitis C virus, read-out: EC50 1b
[4] = class symbol, read-out: EC50 Range against HCV 1b

CN(C)[C@H](C(=O)N1CCC[C@H]1C(=O)Nc1ccc(-c2cnc(-c3ccc(NC(=O)[C@@H]4CCCN4C(=O)[C@H]([C@@H](O)c4ccccc4)N(C)C)cc3)o2)cc1)[C@@H](O)c1ccccc1 [JR-13, (S,S,2S)-N,N′-(4,4′-(oxazole-2,5-diyl)bis(4,1-phenylene))bis(1-((2S,3S)-2-(dimethylamino)-3-hydroxy-3-phenylpropanoyl)pyrrolidine-2-carboxamide)]
pEC50 (class symbols, read-out: EC50 Range against HCV 1b): 6.00 to 7.00 | pEC50 (read-out: EC50 1b): 6.95

CC(C)(C)O[C@@H]1C[C@@H](C(=O)Nc2ccc(-c3cnc(-c4ccc(NC(=O)[C@@H]5C[C@@H](OC(C)(C)C)CN5C(=O)Cc5cccnc5)cc4)o3)cc2)N(C(=O)Cc2cccnc2)C1 [XY-62, (2S,4R,2′S,4′R)-N,N′-(1,3-oxazole-2,5-diyldi-4,1-phenylene)bis(4-tert-butoxy-1-(3-pyridinylacetyl)-2-pyrrolidinecarboxamide)]
pEC50 [1]: 7.00 to 8.34

O=C(Nc1ccc(-c2cc(-c3ccc(NC(=O)[C@@H]4CCCN4C(=O)c4nc5ccccc5s4)cc3)[nH]n2)cc1)[C@@H]1CCCN1C(=O)c1nc2ccccc2s1 [JG-41, (2S,2′S)-N,N′-(1H-pyrazole-3,5-diyldi-4,1-phenylene)bis(1-(1,3-benzothiazol-2-ylcarbonyl)-2-pyrrolidinecarboxamide)]
pEC50 [2]: 6.00 to 7.00

COc1ccccc1C(=O)N1CCC[C@H]1C(=O)Nc1ccc(-c2nnc(-c3ccc(NC(=O)[C@@H]4CCCN4C(=O)c4ccccc4OC)cc3)o2)cc1 [RK-6, (2S,2′S)-N,N′-(1,3,4-oxadiazole-2,5-diyldi-4,1-phenylene)bis(1-(2-methoxybenzoyl)-2-pyrrolidinecarboxamide)]
pEC50 [2]: 6.00 to 7.00

CC(C)[C@@H](NC(=O)OCc1ccccc1)C(=O)Nc1ccc(-c2cnc(-c3ccc(NC(=O)[C@H](NC(=O)OCc4ccccc4)C(C)C)cc3)o2)cc1 [JG-5, dibenzyl (1,3-oxazole-2,5-diylbis(4,1-phenyleneimino((2R)-3-methyl-1-oxo-1,2-butanediyl)))biscarbamate]
pEC50 [2]: 5.00 to 6.00 | pEC50 [3]: 5.00

C[C@H](NC(=O)c1cccc(Cl)n1)C(=O)Nc1ccc(-c2nnc(-c3ccc(NC(=O)[C@H](C)NC(=O)c4cccc(Cl)n4)cc3)o2)cc1 [RK-20, N,N′-(1,3,4-oxadiazole-2,5-diylbis(4,1-phenyleneimino((2S)-1-oxo-1,2-propanediyl)))bis(6-chloro-2-pyridinecarboxamide)]
pEC50 [2]: 5.00 to 6.00

CCOC(=O)Cc1nc(-c2ccc(NC(=O)[C@H](C)NC(=O)OCc3ccccc3)cc2)c(-c2ccc(NC(=O)[C@H](C)NC(=O)OCc3ccccc3)cc2)o1 [OL-1d, 4,5-bis[4-[[(2S)-1-oxo-2-[[(phenylmethoxy)carbonyl]amino]propyl]amino]phenyl]-2-oxazoleacetic acid, ethyl ester]
pEC50 [2]: 5.00 to 6.00

O=C(Nc1ccc(-c2cnc(-c3ccc(NC(=O)[C@@H]4CCCN4C(=O)c4ccccc4F)cc3)o2)cc1)[C@@H]1CCCN1C(=O)c1ccccc1F [XY-10, (2S,2′S)-N,N′-(1,3-oxazole-2,5-diyldi-4,1-phenylene)bis(1-(2-fluorobenzoyl)-2-pyrrolidinecarboxamide)]
pEC50 [1]: 6.00 to 7.00

O=C(C(=O)N1CCC[C@H]1C(=O)Nc1ccc(-c2cc(-c3ccc(NC(=O)[C@@H]4CCCN4C(=O)C(=O)c4ccccc4)cc3)[nH]n2)cc1)c1ccccc1 [JG-31, (2S,2′S)-N,N′-(1H-pyrazole-3,5-diyldi-4,1-phenylene)bis(1-(oxo(phenyl)acetyl)-2-pyrrolidinecarboxamide)]
pEC50 [2]: 7.00 to 8.34

O=C(Nc1ccc(-c2cnc(-c3ccc(NC(=O)[C@@H]4CCCN4C(=O)c4nc5ccccc5s4)cc3)o2)cc1)[C@@H]1CCCN1C(=O)c1nc2ccccc2s1 [JG-29, (2S,2′S)-N,N′-(1,3-oxazole-2,5-diyldi-4,1-phenylene)bis(1-(1,3-benzothiazol-2-ylcarbonyl)-2-pyrrolidinecarboxamide)]
pEC50 [2]: 6.00 to 7.00

C[C@H](NC(=O)c1ccco1)C(=O)Nc1ccc(-c2nnc(-c3ccc(NC(=O)[C@H](C)NC(=O)c4ccco4)cc3)o2)cc1 [RK-21, N,N′-(1,3,4-oxadiazole-2,5-diylbis(4,1-phenyleneimino((2S)-1-oxo-1,2-propanediyl)))di(2-furamide)]
pEC50 [2]: 5.00 to 6.00

O=C(Nc1ccc(-c2nc[nH]c2-c2ccc(NC(=O)[C@@H]3C[C@@H](O)CN3C(=O)Cc3ccccc3)cc2)cc1)[C@@H]1C[C@@H](O)CN1C(=O)Cc1ccccc1 [OL-11]
pEC50 [2]: 6.00 to 7.00

O=C(Nc1ccc(-c2ccc(-c3ccc(NC(=O)[C@@H]4CCCN4C(=O)[C@H](O)c4ccccc4)cc3)o2)cc1)[C@@H]1CCCN1C(=O)[C@H](O)c1ccccc1 [JG-56, (2S,2′S)-N,N′-(2,5-furandiyldi-4,1-phenylene)bis(1-((2R)-2-hydroxy-2-phenylacetyl)-2-pyrrolidinecarboxamide)]
pEC50 [4]: > 8.34 | pEC50 [3]: > 8.30

Cn1ccnc1C(O)C(=O)N1CCC[C@H]1C(=O)Nc1ccc(-c2cnc(-c3ccc(NC(=O)[C@@H]4CCCN4C(=O)C(O)c4nccn4C)cc3)o2)cc1 (stereo partly drawn) [Example D-11, (2S,2′S)-N,N′-(4,4′-(oxazole-2,5-diyl)bis(4,1-phenylene))bis(1-(2-hydroxy-2-(1-methyl-1H-imidazol-2-yl)acetyl)pyrrolidine-2-carboxamide)]
pEC50 [4]: 5.00 to 6.00 | pEC50 (read-out: EC50 1b): 5.68

O=C(Nc1ccc(-c2nnc(-c3ccc(NC(=O)[C@@H]4CCCN4C(=O)c4nc(Cl)cc5ccccc45)cc3)o2)cc1)[C@@H]1CCCN1C(=O)c1nc(Cl)cc2ccccc12 [RK-18, (2S,2′S)-N,N′-(1,3,4-oxadiazole-2,5-diyldi-4,1-phenylene)bis(1-((3-chloro-1-isoquinolinyl)carbonyl)-2-pyrrolidinecarboxamide)]
pEC50 [2]: 5.00 to 6.00

CC(C)(C)OC(=O)N1CCCC1(C)C(=O)N1CCC[C@H]1C(=O)Nc1ccc(-c2cnc(-c3ccc(NC(=O)[C@@H]4CCCN4C(=O)C4(C)CCCN4C(=O)OC(C)(C)C)cc3)o2)cc1 (stereo partly drawn) [Example D-30, di-tert-butyl 2,2′-(1,3-oxazole-2,5-diylbis(4,1-phenylenecarbamoyl(2S)-2,1-pyrrolidinediylcarbonyl))bis(2-methyl-1-pyrrolidinecarboxylate)]
pEC50 [4]: 5.00 to 6.00

O=C(Nc1ccc(-c2cnc(-c3ccc(NC(=O)[C@@H]4CCCN4C(=O)C(O)c4c[nH]c5cnccc45)cc3)o2)cc1)[C@@H]1CCCN1C(=O)C(O)c1c[nH]c2cnccc12 (stereo partly drawn) [Example D-17, (2S,2′S)-N,N′-(4,4′-(oxazole-2,5-diyl)bis(4,1-phenylene))bis(1-(2-hydroxy-2-(1H-pyrrolo[2,3-c]pyridin-3-yl)acetyl)pyrrolidine-2-carboxamide)]
pEC50 [4]: 5.00 to 6.00 | pEC50 (read-out: EC50 1b): 5.17

CC(=O)N1CCC[C@H]1C(=O)Nc1ccc(-c2nc(-c3ccc(NC(=O)C4CC(=O)N(CCc5cccs5)C4)cc3)cs2)cc1 (stereo partly drawn) [Example D-46, (2S)-1-acetyl-N-[4-[4-[4-[[[5-oxo-1-[2-(2-thienyl)ethyl]-3-pyrrolidinyl]carbonyl]amino]phenyl]-2-thiazolyl]phenyl]-2-pyrrolidinecarboxamide]
pEC50 [2]: 5.00 to 6.00

O=C(Nc1ccc(-c2nnc(-c3ccc(NC(=O)[C@@H]4CCCN4C(=O)c4cccc(Cl)n4)cc3)o2)cc1)[C@@H]1CCCN1C(=O)c1cccc(Cl)n1 [RK-12, (2S,2′S)-N,N′-(1,3,4-oxadiazole-2,5-diyldi-4,1-phenylene)bis(1-((6-chloro-2-pyridinyl)carbonyl)-2-pyrrolidinecarboxamide)]
pEC50 [2]: 5.00 to 6.00 | pEC50 [3]: 5.40

Cn1nc(-c2ccc(NC(=O)[C@@H]3CCCN3C(=O)Cc3ccccc3)cc2)cc1-c1ccc(NC(=O)[C@@H]2CCCN2C(=O)Cc2ccccc2)cc1 [FY-1, (2S,2′S)-N,N′-((1-methyl-1H-pyrazole-3,5-diyl)di-4,1-phenylene)bis(1-(phenylacetyl)-2-pyrrolidinecarboxamide)]
pEC50 [2]: 6.00 to 7.00

CC(=O)N1CCC[C@H]1C(=O)Nc1ccc(-c2nc(-c3ccc(NC(=O)[C@@H]4C=CCN4C(=O)[C@@H]4CCCO4)cc3)cs2)cc1 [Example D-52, (2S)-N-[4-[2-[4-[[[(2S)-1-acetyl-2-pyrrolidinyl]carbonyl]amino]phenyl]-4-thiazolyl]phenyl]-2,5-dihydro-1-[[(2S)-tetrahydro-2-furanyl]carbonyl]-1H-pyrrole-2-carboxamide]
pEC50 [2]: 5.00 to 6.00

CCCC[C@H](NC(=O)Cc1ccccc1)C(=O)Nc1ccc(-c2cnc(-c3ccc(NC(=O)[C@H](CCCC)NC(=O)Cc4ccccc4)cc3)o2)cc1 [JG-17, (2S,2′S)-N,N′-(4,4′-(oxazole-2,5-diyl)bis(4,1-phenylene))bis(2-(2-phenylacetamido)hexanamide)]
pEC50 [4]: 6.00 to 7.00

O=C(Nc1ccc(-c2nnc(-c3ccc(NC(=O)[C@H]4CCCCN4C(=O)OCc4ccccc4)cc3)o2)cc1)[C@H]1CCCCN1C(=O)OCc1ccccc1 [RK-5, dibenzyl (2R,2′R)-2,2′-(1,3,4-oxadiazole-2,5-diylbis(4,1-phenylenecarbamoyl))di(1-piperidinecarboxylate)]
pEC50 [2]: 5.00 to 6.00

CN(C)C(C(=O)N1CCC[C@H]1C(=O)Nc1ccc(-c2cnc(-c3ccc(NC(=O)[C@@H]4CCCN4C(=O)C(c4ccccc4F)N(C)C)cc3)o2)cc1)c1ccccc1F (stereo partly drawn) [Example D-4, (2S,2′S)-N,N′-(2,5-oxazolediyldi-4,1-phenylene)bis[1-[(dimethylamino)(2-fluorophenyl)acetyl]-2-pyrrolidinecarboxamide]]
pEC50 [2]: > 8.34

Cc1noc(C)c1C(=O)N1CCC[C@H]1C(=O)Nc1ccc(-c2cnc(-c3ccc(NC(=O)[C@@H]4CCCN4C(=O)c4c(C)noc4C)cc3)o2)cc1 [XY-28, (2S,2′S)-N,N′-(1,3-oxazole-2,5-diyldi-4,1-phenylene)bis(1-((3,5-dimethyl-4-isoxazolyl)carbonyl)-2-pyrrolidinecarboxamide)]
pEC50 [1]: 6.00 to 7.00

COc1ccc(C(=O)N2CCC[C@H]2C(=O)Nc2ccc(-c3cnc(-c4ccc(NC(=O)[C@@H]5CCCN5C(=O)c5ccc(OC)cc5)cc4)o3)cc2)cc1 [XY-29, (2S,2′S)-N,N′-(1,3-oxazole-2,5-diyldi-4,1-phenylene)bis(1-(4-methoxybenzoyl)-2-pyrrolidinecarboxamide)]
pEC50 [1]: 6.00 to 7.00
